From PMC5288202, “Simultaneous inhibition of Vps34 kinase would enhance PI3Kδ inhibitor cytotoxicity in the B-cell malignancies” (Oncotarget, 2016)
Read-outs that look alike come from different tables or passages of the source.

Assays:
Format in all cases: cell-based
U937 = test: Anti-proliferative effect; settings: Homo sapiens, U-937; AML(FLT3wt); read-out: GI50 U937
CMK = test: Anti-proliferative effect; settings: Homo sapiens, read-out: GI50 CMK
NB4 = test: Anti-proliferative effect; settings: Homo sapiens; AML-3 (FLT3wt); read-out: GI50 NB4
HL-60 = test: Anti-proliferative effect; settings: Homo sapiens, HL-60; AML (FLT3 wt); read-out: GI50 HL-60
OCI-AML-3 = test: Anti-proliferative effect; settings: Homo sapiens, AML(FLT3wt)
OCI-AML-2 [1] = test: Anti-proliferative effect; settings: Homo sapiens, OCI-AML2; AML(FLT3wt); read-out: GI50 OCI-AML-2
NOMO-1 = test: Anti-proliferative effect; settings: Homo sapiens, NOMO-1; AML (FLT3wt); read-out: GI50 NOMO-1
SKM-1 = test: Anti-proliferative effect; settings: Homo sapiens, SKM-1; AML(FLT3wt); read-out: GI50 SKM-1
MOLM-14 = test: Anti-proliferative effect; settings: Homo sapiens, MOLM-14; AML (FLT3-ITD)
MOLM-13 = test: Anti-proliferative effect; settings: Homo sapiens, AML(FLT3-ITD)
MV4-11 [2] = test: Anti-proliferative effect; settings: Homo sapiens, MV4-11; AML (FLT3-ITD)
HEL = test: Anti-proliferative effect; settings: Homo sapiens, AML(FLT3wt), read-out: GI50 HEL
HT = test: Anti-proliferative effect; settings: Homo sapiens, B-cell lymphoma, read-out: GI50 HT
Ramos = test: Anti-proliferative effect; settings: Homo sapiens, Burrkit lymphoma, read-out: GI50 Ramos
Namalwa [3] = test: Anti-proliferative effect; settings: Burrkit lymphoma; read-out: GI50 Namalwa
MEC-2 [4] = test: Anti-proliferative effect
Hs 505T = test: Anti-proliferative effect; settings: Homo sapiens; CLL; read-out: GI50 Hs 505T
MEC-1 = test: Anti-proliferative effect; settings: Homo sapiens, MEC1; CLL
pERK in MEC-2 cells = test: pERK immunoblotting
Text: The following antibodies were purchased from Cell Signaling Technology: Akt(#4691), Phospho-Akt(Thr308)(#4056), Phospho-Akt(Ser473)(#4060), GAPDH, GSK-3β(#9315), Phospho-GSK-3β(#9323), FoxO1(#2880), Phospho-FoxO1 (Thr24)/FoxO3a(Thr32)/FoxO4(Thr28)(#2599), PRAS40(#2691), Phospho-PRAS40 (Thr246)(#2997), 4E-BP1(#9644), p70 S6K(#2708), Phospho-p70 S6K (Thr389)(#9234). SQSTM1/p62 (D5E2)(#8025), LC3B(#12513). PARP(#9532), Caspase-3(#9665), Phospho-p44/42 MAPK (Erk1/2) (Thr202/Tyr204)(#4377), p44/42 MAPK (Erk1/2) (#4695), Phospho-NF-ΚB P65 (Ser 536)(#3033), NF-ΚB P65(#4764). Lysophosphatidic Acid (#sc-201053, Santa Cruz), Recombinant Human PDGF-BB (#220-BB, R&D), Recombinant Human C5a (Peprotech, #300-70), goat anti-IgM (#5C07615, Meridian). LC3B antibody (#3868, CST). Tubulin antibody (#8035, Santa Cruz). EEA1 antibody (#610456, BD Bioscience) and LAMP1 antibody (#24170, Abcam). Secondary antibodies, Alexa488-anti-mouse, Alexa594-anti-rabbit and Prolong gold mounting medium with DAPI were purchased from Invitrogen.

[5] = test system: LC3B puncta in HeLa cells; test: Immunofluorescence of LC3B puncta; settings: 16 hours
Method: (§1) HeLa cells were treated with different concentrations of inhibitors for 16 hours. For all immunofluorescence experiments, cells were fixed in -20 °C methanol for 5 minutes or 3.7% (v/v) formaldehyde in phosphate-buffered saline (PBS) for 20 minutes. For LC3B staining, cells were fixed in -20 °C methanol. For EEA1 and LAMP1 staining, cells were fixed in PBS+ formaldehyde. Cells were then permeabilized with TBSTx (0.1% Triton X-100), blocked in AbDil (TBSTx + 2% BSA + 0.1% NaN3), and probed with primary and secondary antibodies diluted in AbDil. Cells were rinsed thoroughly with TBSTx and mounted by anti-fade prolong Gold with DAPI. Images were taken using a Leica DMI4000B fluorescent microscope. All experiments were repeated at least three times). […] Cells were lysed in lysis buffer. P62, LC3B, and GAPDH antibodies were used for immunoblotting.

[6] = test system: LAMP1 localization in HeLa cells; test: Immunofluorescence of LAMP1 localization
Method: as §1

MEC-2 [7] = test: Drug combination study (CellTiter-Glo, 72 hours); settings: MEC2, 72 h, read-out: Relative activity(%) (MEC-2)
Method: (§2) A combination of the PI3K kinase inhibitor CAL101 with the VPS34 inhibitor VPS34-IN-1, was used to treat the cell lines. Cell proliferation were determined after treatment with the compounds for 72 hours. Cell viability was measured using the CellTiter–Glo assay (Promega, USA), data were normalized to control groups (DMSO) and represented by the mean of three independent measurements with a standard error <20%.

MV4-11 [8] = test: Drug combination study (CellTiter-Glo, 72 hours); settings: Homo sapiens, VPS34-IN-1 3.3 μM, normalized to DMSO, read-out: Relative activity(%) (MV4-11)
Method: as §2

Namalwa [9] = test: Drug combination study (CellTiter-Glo, 72 hours); settings: VPS34-IN-1 3.3 μM, normalized to DMSO, read-out: Relative activity(%) (Namalwa)
Method: as §2

OCI-AML-2 [10] = test: Drug combination study (CellTiter-Glo, 72 hours); settings: Homo sapiens, OCI-AML2, VPS34-IN-1 1.1 μM, normalized to DMSO, read-out: Relative activity(%) (OCI-AML-2)
Method: as §2

Row | GI50 (U937) [nM] | GI50 (HL-60) [nM] | GI50 (OCI-AML-3) [nM] | GI50 (OCI-AML-2 [1]) [nM] | GI50 (SKM-1) [nM] | GI50 (MOLM-14) [nM] | GI50 (MOLM-13) [nM] | GI50 (MV4-11 [2]) [nM] | GI50 (Ramos) [nM] | SMILES | GI50 (CMK; AML(FLT3wt)) [nM] | GI50 (NB4) [nM] | GI50 (NOMO-1) [nM] | GI50 (HEL) [nM] | GI50 (HT) [nM] | GI50 (Namalwa [3]) [nM] | GI50 (Hs 505T) [nM] | GI50 (MEC-1) [nM] | effect on pERK (pERK in MEC-2 cells) | also measured
1 | > 10000 | > 10000 | 2400 | > 10000 | > 10000 | 7800 | > 10000 | > 10000 | > 10000 | CC[C@H](Nc1ncnc2[nH]cnc12)c1nc2cccc(F)c2c(=O)n1-c1ccccc1 [CAL-101] | > 10000 | > 10000 | > 10000 | > 10000 | > 10000 | > 10000 | > 10000 | > 10000 | significantly inhibited | GI50 (MEC-2 [4]; MEC2, CLL, read-out: GI50 MEC-2): > 10000 nM
2 | 1600 | 160 | 730 | 2000 | 300 | 300 | 150 | 1400 | 2100 | CS(=O)(=O)N1CCN(Cc2cc3nc(-c4cccc5[nH]ncc45)nc(N4CCOCC4)c3s2)CC1 [GDC-0941] | 300 | 1000 | 1000 | > 10000 | 500 | 390 | – | – | significantly inhibited | –

Row | SMILES | GI50 (U937) [nM] | GI50 (HL-60) [nM] | GI50 (OCI-AML-3) [nM] | GI50 (OCI-AML-2 [1]) [nM] | GI50 (SKM-1) [nM] | GI50 (MOLM-14) [nM] | GI50 (MOLM-13) [nM] | GI50 (MV4-11 [2]) [nM] | GI50 (Ramos) [nM] | GI50 (CMK; AML(FLT3wt)) [nM] | GI50 (NB4) [nM] | GI50 (NOMO-1) [nM] | GI50 (HEL) [nM] | GI50 (HT) [nM] | GI50 (Namalwa [3]) [nM] | GI50 (Hs 505T) [nM] | GI50 (MEC-1) [nM] | effect on pERK (pERK in MEC-2 cells) | also measured
3 | CC(C)(O)CNc1ncc(-c2ccnc(Nc3ccnc(Cl)c3)n2)c(CC2CC2)n1 [VPS34-IN-1] | 2100 | 510 | 3600 | 6600 | 6400 | 7800 | 700 | 2400 | 3300 | – | 6400 | 1800 | 1700 | 1400 | 8100 | 3000 | 3700 | – | Effect on LC3B puncta [5]: increased LC3B puncta; Effect on lysosome marker LAMP1 localization [6]: affected; GI50 (CMK): 5900 nM; GI50 (MEC-2 [4]; MEC2, read-out: GI50 MEC-2): 3100 nM; activity at 10 µM (MEC-2 [7]): 30.4%; activity at 3.3 µM (MV4-11 [8]): 43.6%; activity at 3.3 µM (Namalwa [9]): 77.8%; activity at 1.1 µM (OCI-AML-2 [10]): 82.8%
